Read-outs that look alike come from different tables or passages of the source.
Assays:
GP2D cells = experiment: Cell proliferation assay (CellTiter-Glo), K-Ras G12D cells; assay type: cell-based; conditions: GP2D cells (K-Ras G12D); read-out: Inhibition of GP2D Cells (IC50)
In short: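 CellTiter-Glo luminescence, taken roughly 5 days after dosing, measured growth of G12D-mutant GP2D cells in DMEM/2 mM glutamine/10% FBS. Compound dilution series (e.g., 9 points, 3-fold) added the day after plating. Four-parameter fitting gave IC50.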

A549 cells = experiment: Cell proliferation assay (CellTiter-Glo), K-Ras G12S cells; assay type: cell-based; conditions: for IC50: Homo sapiens, A549, A549 cells (K-Ras G12S), read-out: Inhibition of A549 Cells (IC50); for ratio of IC50 against a G12D cell line to IC50 against a G12S cell line: K-Ras G12D cell line such as GP2D relative to K-Ras G12S cell line such as A549, greater than 1, 2, 3, 4, 5, 10, 15 or even greater, 8640 min
In short: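 A549 cells (K-Ras G12S) in RPMI-1640 with 10% FBS, seeded in standard or ultra-low-attachment plates and dosed next day with a 10-point 3-fold series. Viability read about 6 days later by CellTiter-Glo luminescence. IC50 from four-parameter fit.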

K-Ras G12S = target: T1, K-Ras G12S (Homo sapiens, UniProt P01116, G12S); experiment: HTRF assay of the K-Ras / SOS1 interaction; assay type: biochemical; conditions: IC50 (against K-Ras G12D) to IC50 (against K-Ras G12S)
T1 construct: made in house; host or cells: E. coli (e.g., BL21 (DE3))
In short: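 Compounds (duplicates, 10 µM to 0.01 µM) were incubated ≥~10 min with Eu-labelled GST-K-Ras G12S and XL665-labelled His-hSOS1 in HEPES pH 7.4 buffer containing NaCl, DTT, BSA and Igepal. Disruption measured as HTRF emission ratio 665/620 nm, fitted to IC50.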

T1 sequence (P01116 1-188 isoform P01116-2 G12S): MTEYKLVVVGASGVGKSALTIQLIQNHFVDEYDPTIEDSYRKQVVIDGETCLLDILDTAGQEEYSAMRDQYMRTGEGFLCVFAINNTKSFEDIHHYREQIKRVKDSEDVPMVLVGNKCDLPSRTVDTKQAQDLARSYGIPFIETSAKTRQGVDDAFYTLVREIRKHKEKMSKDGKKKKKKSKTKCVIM

| SMILES | IC50 (GP2D cells) [nM] | IC50 (A549 cells; bin ≤ 500 nM) [nM] | Ratio of IC50 KRAS G12D vs. IC50 KRAS G12S (K-Ras G12S) | ratio of IC50 against a G12D cell line to IC50 against a G12S cell line (A549 cells) | IC50 (A549 cells; bin 500 nM to 5 µM) [nM] |
| --- | --- | --- | --- | --- | --- |
| CN(C)C1CN(c2nc(N3CCOC4(CN(C(=O)n5cncn5)C4)C3)c3cc(Cl)c(-c4ccc(F)c5sc(N)c(C#N)c45)c(F)c3n2)C1 [Compound A256, 4-(4-(2-(1H-1,2,4-triazole-1-carbonyl)-5-oxa-2,8-diazaspiro[3.5]nonan-8-yl)-6-chloro-2-(3-(dimethylamino)azetidin-1-yl)-8-fluoroquinazolin-7-yl)-2-amino-7-fluorobenzo[b]thiophene-3-carbonitrile] | 1000 to 10000 | ≤ 500 | A (A: indicates that the ratio of IC50 against KrasG12D vs. IC50 against KrasG12S is 1-fold or greater) | – | – |
| N#Cc1c(N)sc2c(F)ccc(-c3c(Cl)cc4c(N5CCOC6CN(C(=O)n7cncn7)CC65)nc(OC[C@@]56CCCN5C[C@H](F)C6)nc4c3F)c12 (stereo partly drawn) [Compound A218, 4-(4-(6-(1H-1,2,4-triazole-1-carbonyl)hexahydropyrrolo [3,4-b][1,4]oxazin-4(4aH)-yl)-6-chloro-8-fluoro-2-(((2R,7aS)-2-fluorotetrahydro-1H-pyrrolizin-7a(5H)-yl)methoxy)quinazolin-7-yl)-2-amino-7-fluorobenzo[b]thiophene-3-carbonitrile] | 1000 to 10000 | ≤ 500 | A (A: indicates that the ratio of IC50 against KrasG12D vs. IC50 against KrasG12S is 1-fold or greater) | greater than 1 | – |
| C#Cc1c(F)ccc2cc(O)cc(-c3ncc4c(N5CCOCC6(CN(C(=O)n7cnc(C)n7)C6)C5)nc(OC[C@@]56CCCN5C[C@H](F)C6)nc4c3F)c12 [Compound A298, (9-(7-(8-ethynyl-7-fluoro-3-hydroxynaphthalen-1-yl)-8-fluoro-2-(((2R,7aS)-2-fluorotetrahydro-1H-pyrrolizin-7a(5H)-yl)methoxy)pyrido[4,3-d]pyrimidin-4-yl)-6-oxa-2,9-diazaspiro[3.6]decan-2-yl)(3-methyl-1H-1,2,4-triazol-1-yl)methanone] | 1000 to 10000 | – | A (A: indicates that the ratio of IC50 against KrasG12D vs. IC50 against KrasG12S is 1-fold or greater) | greater than 1 | 500 to 5000 |

Source: patent EP4389751A1, “HETEROCYCLIC COMPOUNDS AND USES THEREOF” (Kumquat Biosciences Inc., priority 2021, dated 2024)
